Here are results for two compounds from patent US9382258B2, “Agents for treating pain and uses thereof” (AbbVie Inc., priority 2012, dated 2016).

The subject of experiment [1] is Sprague Dawley rats (CCI neuropathic pain). The experiment in a line: Chronic constriction injury (CCI) model of neuropathic pain, tactile allodynia by von Frey filaments. The following applies: male Sprague Dawley rats, 10 mg/kg orally in 10% dimethyl sulfoxide/polyethylene glycol, mechanical allodynia 60 minutes after administration, calculated from log g paw withdrawal threshold. The class given is in vivo, rat. As for the experimental part: Test compounds can be evaluated for analgesic effect in an in vivo model of neuropathic pain. Specifically, animals were prepared for testing, by use of a surgical procedure that induces neuropathic pain in one paw. IACUC guidelines for rodent survival surgery were followed. All surgical procedures were conducted on a clean, uncluttered surgical station. The area was wiped with a 70% ethanol solution before and after use. All instruments were sterilized by either autoclave or chemical sterilant (such as 2% glutaraldehyde>10 hours). Surgeons wore sterile gloves (for the initial procedure), clean lab coat or scrubs, hairnet or cap, and a half-mask respirator (when not working under a hood). Surgeons thoroughly washed their hands prior to donning sterile gloves. Gloves were disinfected in-between animals by cleansing with povidone iodine, chlorhexidine or 70% alcohol for at least 30 seconds. If multiple surgeries were performed, the instruments were cleaned and sterilized between procedures with hot glass beads (>10 seconds). To prevent thermal or chemical burns, the instruments were cooled by rinsing in sterile saline before use.
Male, Sprague Dawley® rats, 175-200 g were used for surgeries. To minimize post-operative dehydration/maintain blood volume during the surgery, warmed sterile saline or Lactate Ringers solution at 10-15 mL/kg was administered subcutaneously immediately before or after surgery. This facilitates better renal function and presumably anesthesia product excretion post surgery. For all surgical procedures, anesthesia was induced with 4-5% isoflurane. Anesthesia was maintained during surgery with 1-3% isoflurane. Following induction, the surgical site was carefully shaved and the exposed area was aseptically prepared with povidone-iodine scrub solution and 70% ethanol 2-3 times.
Chronic constriction injury (CCI), a model of neuropathic pain, was produced by following the method of Bennett and Xie (Bennett, G., et al. Pain, 1988, 33, 87-107). After site sterilization and anesthetic procedures outline above were completed, a 1.5 cm incision is made at the mid-thigh level to expose the biceps femoris and gluteous superficialis (right side), which were then separated by blunt dissection. The common sciatic nerve was exposed, isolated, and loosely ligated by four 5-0 chromic gut ligatures with <1 mm spacing between each. The surgical site was closed in layers—muscle is closed with 6.0 absorbable sutures, and the skin closed with wound clips. Animals were allowed to recover on a warming plate and were returned to their home cages when fully ambulatory. Animals were not be used for testing until at least 10 days following surgery.
To measure mechanical sensitivity, tactile allodynia was measured using calibrated von Frey filaments (Stoelting, Wood Dale, Ill.) as described by Chaplan et al. (Chaplan S., et al. J of Neuroscience Methods 1994, 53, 55-63). Filament strengths used were: 0.4, 0.6, 1.0, 2, 4, 6, 8, and 15 g. Rats were placed into inverted individual plastic containers (20×12.5×20 cm) on top of a suspended wire mesh grid, and acclimated to the test chambers for at least 20 minutes. Filaments were applied perpendicular to the mid-plantar paw surface with enough force to cause slight buckling and held in place for 6-8 seconds. Positive responses included an abrupt withdrawal of the paw from the stimulus or flinching behavior immediately following removal of the stimulus. The maximum force applied was 15 g. The 50% paw withdrawal threshold (PWT) was calculated in grams (g) using the up-down method of Dixon (Dixon W. Ann Rev Pharmacol Toxicol 1980, 20, 441-462). […] All compounds were orally administered at 10 mg/kg in 10% dimethyl sulfoxide/polyethylene glycol at a volume of 2.0 mL/kg, and mechanical allodynia was determined 60 minutes following compound administration
The data are reported as log g values and the percentage of maximum possible effect (% MPE) is calculated using log g values with the Formula: […]

The next experiment has as its target T1, human Cav2.2 (Homo sapiens, UniProt Q00975).
T1 construct: cells endogenously expressing human Cav2.2; endogenous in cells; host or cells: IMR32 cells
The experiment in a line: Calcium flux (FLIPR, Calcium 4 dye) in IMR32 cells endogenously expressing human Cav2.2. The class given is cell-based. To be noted: 60 minute pre-incubation, 2 μM nifedipine to block L-type channels, depolarized with 80 mM KCl, 5 mM CaCl2, average of n≥2 runs unless marked *. The essentials: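 IMR32 cells were dye-loaded 1.5 h at room temperature in HBSS/HEPES pH 7.4, then preincubated 60 min with compounds (10 μM to 0.1 nM) plus 1.3 mM CaCl2 and 2 μM nifedipine. Influx triggered by 5 mM CaCl2 with 80 mM KCl depolarization, FLIPR read; IC50 from sigmoidal fit of percent inhibition, usually n≥2.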
A general note: Calcium assays in cells follow changes in intracellular calcium, usually with a dye or a luminescent sensor.

T1 sequence (Q00975 whole entry): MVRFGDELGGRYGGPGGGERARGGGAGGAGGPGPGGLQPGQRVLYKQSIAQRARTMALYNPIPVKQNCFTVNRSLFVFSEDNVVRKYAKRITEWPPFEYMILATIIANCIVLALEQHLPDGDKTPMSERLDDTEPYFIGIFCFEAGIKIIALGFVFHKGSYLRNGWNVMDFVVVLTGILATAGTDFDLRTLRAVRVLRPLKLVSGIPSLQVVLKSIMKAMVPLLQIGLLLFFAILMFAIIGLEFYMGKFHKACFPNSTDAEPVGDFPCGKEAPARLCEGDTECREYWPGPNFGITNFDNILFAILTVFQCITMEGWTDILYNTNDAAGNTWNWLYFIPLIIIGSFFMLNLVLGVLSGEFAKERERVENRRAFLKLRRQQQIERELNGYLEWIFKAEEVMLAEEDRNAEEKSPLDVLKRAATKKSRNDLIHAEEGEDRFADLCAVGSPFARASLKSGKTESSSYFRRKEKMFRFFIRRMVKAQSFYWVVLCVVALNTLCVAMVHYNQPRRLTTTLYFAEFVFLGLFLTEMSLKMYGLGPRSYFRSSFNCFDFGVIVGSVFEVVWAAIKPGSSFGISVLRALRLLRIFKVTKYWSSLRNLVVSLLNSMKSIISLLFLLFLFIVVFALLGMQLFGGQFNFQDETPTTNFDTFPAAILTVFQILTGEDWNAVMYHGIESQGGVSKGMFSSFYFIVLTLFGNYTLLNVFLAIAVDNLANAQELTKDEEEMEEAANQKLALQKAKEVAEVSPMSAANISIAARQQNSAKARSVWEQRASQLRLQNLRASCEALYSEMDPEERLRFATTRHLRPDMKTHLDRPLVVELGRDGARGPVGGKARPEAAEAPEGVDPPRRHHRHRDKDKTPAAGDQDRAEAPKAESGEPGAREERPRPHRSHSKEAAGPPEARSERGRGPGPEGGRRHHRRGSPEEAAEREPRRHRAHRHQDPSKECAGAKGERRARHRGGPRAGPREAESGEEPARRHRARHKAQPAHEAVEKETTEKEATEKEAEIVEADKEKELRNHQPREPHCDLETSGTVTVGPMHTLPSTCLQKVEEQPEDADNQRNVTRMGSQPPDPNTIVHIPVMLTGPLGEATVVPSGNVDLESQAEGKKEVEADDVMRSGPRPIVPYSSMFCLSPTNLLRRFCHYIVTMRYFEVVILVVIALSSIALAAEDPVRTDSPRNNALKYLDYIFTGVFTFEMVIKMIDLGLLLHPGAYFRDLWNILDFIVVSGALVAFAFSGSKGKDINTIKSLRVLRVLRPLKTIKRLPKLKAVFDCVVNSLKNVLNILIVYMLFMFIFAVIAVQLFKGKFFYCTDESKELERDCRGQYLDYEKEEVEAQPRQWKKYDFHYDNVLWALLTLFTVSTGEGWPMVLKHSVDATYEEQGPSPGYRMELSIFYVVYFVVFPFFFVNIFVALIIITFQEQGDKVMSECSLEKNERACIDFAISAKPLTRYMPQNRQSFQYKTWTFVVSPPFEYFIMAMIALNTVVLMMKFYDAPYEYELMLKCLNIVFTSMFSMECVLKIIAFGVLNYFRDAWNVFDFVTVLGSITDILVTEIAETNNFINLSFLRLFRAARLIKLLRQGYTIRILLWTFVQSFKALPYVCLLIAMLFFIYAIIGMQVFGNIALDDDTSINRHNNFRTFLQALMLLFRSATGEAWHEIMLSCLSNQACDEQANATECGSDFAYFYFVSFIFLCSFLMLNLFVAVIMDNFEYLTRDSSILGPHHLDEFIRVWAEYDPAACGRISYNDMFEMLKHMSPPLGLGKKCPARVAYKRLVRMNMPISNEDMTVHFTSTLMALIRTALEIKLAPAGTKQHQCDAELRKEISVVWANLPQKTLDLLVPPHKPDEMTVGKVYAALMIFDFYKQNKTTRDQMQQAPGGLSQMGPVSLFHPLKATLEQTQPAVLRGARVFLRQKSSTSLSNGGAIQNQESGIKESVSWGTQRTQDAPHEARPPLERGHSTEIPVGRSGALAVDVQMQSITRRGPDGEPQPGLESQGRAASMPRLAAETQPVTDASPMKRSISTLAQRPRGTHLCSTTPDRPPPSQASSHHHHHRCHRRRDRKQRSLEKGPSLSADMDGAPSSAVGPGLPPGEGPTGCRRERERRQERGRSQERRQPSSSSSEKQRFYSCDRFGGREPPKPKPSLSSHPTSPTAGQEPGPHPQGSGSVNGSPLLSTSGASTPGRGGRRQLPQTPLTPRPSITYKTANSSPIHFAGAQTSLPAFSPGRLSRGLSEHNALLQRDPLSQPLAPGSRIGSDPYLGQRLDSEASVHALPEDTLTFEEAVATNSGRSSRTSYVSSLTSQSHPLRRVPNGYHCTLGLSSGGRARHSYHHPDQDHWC
T1 sequence (P54284 whole entry partner): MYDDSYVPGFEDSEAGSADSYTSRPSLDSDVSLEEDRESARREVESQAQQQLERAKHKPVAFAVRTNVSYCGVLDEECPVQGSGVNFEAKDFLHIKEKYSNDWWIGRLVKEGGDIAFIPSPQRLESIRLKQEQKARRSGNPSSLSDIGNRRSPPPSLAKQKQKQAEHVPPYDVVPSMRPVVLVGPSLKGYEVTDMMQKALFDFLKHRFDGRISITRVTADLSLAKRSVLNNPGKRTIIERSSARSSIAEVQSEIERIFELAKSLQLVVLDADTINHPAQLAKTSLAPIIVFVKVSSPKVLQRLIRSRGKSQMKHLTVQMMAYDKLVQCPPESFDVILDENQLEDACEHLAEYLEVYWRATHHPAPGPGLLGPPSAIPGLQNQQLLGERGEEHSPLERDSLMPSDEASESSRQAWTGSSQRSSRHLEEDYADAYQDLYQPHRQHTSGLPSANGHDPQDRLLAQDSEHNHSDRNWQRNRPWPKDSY
T1 sequence (P54289 25-956 partner limits assumed): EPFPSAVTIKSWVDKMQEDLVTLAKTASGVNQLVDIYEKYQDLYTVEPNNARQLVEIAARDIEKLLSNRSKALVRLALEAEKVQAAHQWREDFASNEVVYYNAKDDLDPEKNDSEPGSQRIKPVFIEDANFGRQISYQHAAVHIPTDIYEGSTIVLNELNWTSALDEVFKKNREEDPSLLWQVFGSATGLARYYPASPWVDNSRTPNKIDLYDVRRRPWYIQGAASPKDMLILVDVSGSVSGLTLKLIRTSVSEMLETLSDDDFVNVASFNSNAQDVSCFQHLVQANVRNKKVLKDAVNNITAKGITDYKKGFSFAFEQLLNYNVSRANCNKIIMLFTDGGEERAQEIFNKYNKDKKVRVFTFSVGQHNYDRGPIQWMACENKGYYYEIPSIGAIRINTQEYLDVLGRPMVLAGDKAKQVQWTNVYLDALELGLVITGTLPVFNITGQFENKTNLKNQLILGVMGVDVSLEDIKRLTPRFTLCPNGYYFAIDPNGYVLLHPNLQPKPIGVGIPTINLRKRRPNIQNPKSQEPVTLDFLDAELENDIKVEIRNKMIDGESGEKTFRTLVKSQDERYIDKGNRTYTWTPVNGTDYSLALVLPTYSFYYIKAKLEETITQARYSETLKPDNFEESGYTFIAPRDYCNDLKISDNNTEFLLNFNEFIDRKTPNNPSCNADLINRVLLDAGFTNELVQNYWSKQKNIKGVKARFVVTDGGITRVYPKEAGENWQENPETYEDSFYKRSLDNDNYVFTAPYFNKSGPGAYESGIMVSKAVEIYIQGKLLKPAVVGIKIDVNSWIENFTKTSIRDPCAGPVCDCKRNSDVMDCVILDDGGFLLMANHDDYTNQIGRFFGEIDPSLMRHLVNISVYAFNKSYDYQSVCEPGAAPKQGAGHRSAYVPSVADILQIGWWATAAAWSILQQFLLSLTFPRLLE
T1 sequence (P54289 957-1103 partner limits assumed): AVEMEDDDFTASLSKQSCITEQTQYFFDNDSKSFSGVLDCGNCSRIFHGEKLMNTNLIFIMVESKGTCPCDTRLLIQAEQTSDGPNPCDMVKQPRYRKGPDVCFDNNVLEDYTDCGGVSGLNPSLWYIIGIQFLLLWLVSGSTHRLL

Regarding `O=C1CCN(Cc2ccc(OC(F)(F)F)cc2)C[C@@H]2C[C@@H](Oc3cnc(C4CC4)cn3)CN12` [Example 44, (8R,9aS)-8-[(5-cyclopropylpyrazin-2-yl)oxy]-2-[4-(trifluoromethoxy)benzyl]octahydro-5H-pyrrolo[1,2-a][1,4]diazepin-5-one], the “% MPE” value in experiment [1] was 48%. The IC50 (as a rule, the point on the concentration scale where inhibition reaches its midpoint) on human Cav2.2 is 1.65 µM.

With `O=C1CCN(c2ccc(C(F)(F)F)cn2)C[C@@H]2C[C@@H](Oc3cnc(C4CC4)cn3)CN12` [Example 47, (8R,9aS)-8-[(5-cyclopropylpyrazin-2-yl)oxy]-2-[5-(trifluoromethyl)pyridin-2-yl]octahydro-5H-pyrrolo[1,2-a][1,4]diazepin-5-one], the “% MPE” value in experiment [1] is 73%. Moreover, at human Cav2.2, the IC50 came out at 2.52 µM.
